By GI50 is commonly meant the concentration at which growth is held to half of that of the control. The TGI is the concentration giving total growth inhibition. Read a high TGI as lower sensitivity of the cells.

SMILES strings stand for the structures.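 The compound was tested at five concentrations on cells cultured in 96-well plates, with a 48-hour exposure period. GI50: concentration for 50% inhibition of growth. TGI marks complete inhibition of growth.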

Results on three compounds are retold here after PubChem BioAssay (NCI).

Experiment in all cases: DTP human tumour cell line panel, 48 h
In assay [1] the test system is NCI-H226 lung.
For assay [2], the system named is MCF7 breast.
In assay [3] the test system is IGROV1 ovarian.
Assay [4] deals with SK-MEL-2 melanoma.
The test system of assay [5] is HCC-2998 colon.
Assay [6] relates to MOLT-4 leukemia.
Assay [7] deals with UO-31 renal.
Assay [8] concerns MALME-3M melanoma.
Assay [9] relates to EKVX NSCLC.
Assay [10] deals with SNB-75 CNS.

For `CN1CCN(Cn2nc(-c3cc(F)c(Cl)cc3Cl)oc2=S)CC1`, the GI50 in [1] was 34.4 µM; in assay [2] it was 30.2 µM; in [3] it was 37.1 µM; in assay [4], above 100 µM; in assay [5] it was 55.9 µM; in assay [6] it was 30.5 µM. The GI50 in [7] was 74.1 µM; in assay [8], 26.4 µM; in assay [9], above 100 µM; in assay [10], 53.3 µM. For the same compound, the TGI in assay [1] is above 100 µM; in [2] it was above 100 µM; in assay [3] it was above 100 µM; in assay [4] it was above 100 µM; in assay [5], above 100 µM; in assay [6], 70.9 µM. For the same compound, the TGI is above 100 µM in assay [7], 74.1 µM in assay [8], above 100 µM in assay [9] and above 100 µM in assay [10].
As for `O=c1[nH]c(-c2ccc(Cl)cc2)cc2ccsc12`, the TGI in [1] is above 100 µM; in assay [2], above 100 µM; in assay [3], above 100 µM; in assay [4], above 100 µM; in assay [5], 9.61 µM; in [6] it was above 100 µM. Besides, the TGI in assay [7] is above 100 µM; in [8], 5.8 µM; in assay [9], above 100 µM; in [10] it was 23.2 µM.
Consider `COc1cccc2c1C(=O)c1c(O)c3c(c(O)c1C2=O)CC(O)(C(C)=O)CC3O` (stereo not given), for which the TGI was determined as 18.6 µM in assay [1]; 16.2 µM in assay [2]; 29.7 µM in assay [3]; 16.9 µM in assay [4]; 11.1 µM in assay [5]; 11.3 µM in assay [6]. In addition, the TGI amounted to 28.8 µM in assay [7], 12.7 µM in assay [8], 20.6 µM in assay [9] and 32.4 µM in assay [10].
